According to BigSolDB 2.1:

O=C(OCCO)c1ccc(C(=O)OCCO)cc1
solubility (mole fraction)
Settings	283.15 K	288.15 K	293.15 K	298.15 K	303.15 K	308.15 K	313.15 K	318.15 K	323.15 K	328.15 K
in ethanol	0.000577	0.000802	0.00113	0.00141	0.00169	0.00249	0.00315	0.00395	0.00521	0.00656
in ethylene glycol	0.000174	0.000264	0.000391	0.000554	0.000859	0.00118	0.0018	0.00255	0.0037	0.00499
in methanol	0.000772	0.00104	0.00142	0.00184	0.00238	0.00329	0.00404	0.00517	0.00656	0.00815
in water	1.7e-05	2.4e-05	3.2e-05	4.2e-05	5.8e-05	7.7e-05	9.6e-05	0.000132	0.000171	0.000221
